Measured values as given in PMC4620497 (Scientific Reports, 2015).

Key:
ERK = test system: ERK; set-up: method as in earlier work; conditions: Table S1; cited from earlier work
BMX = biological target: T1, BMX (Homo sapiens, UniProt P51813); assay: KINOMEscan panel screen; assay type: binding; conditions: read-out: Percent Control(%)
T1 construct: purchased DiscoveRx KINOMEscan (Ambit Biosciences)

CDK4-cyclinD3 = biological target: T2, CDK4-cyclinD3 (Homo sapiens, UniProt P11802); assay: KINOMEscan panel screen; assay type: binding; conditions: read-out: Percent Control(%)
T2 construct: purchased DiscoveRx KINOMEscan (Ambit Biosciences)

CHEK1 = biological target: T3, CHEK1 (Homo sapiens, UniProt O14757); assay: KINOMEscan panel screen; assay type: binding; conditions: read-out: Percent Control(%)
T3 construct: purchased DiscoveRx KINOMEscan (Ambit Biosciences)
T3 sequence (O14757 1-476): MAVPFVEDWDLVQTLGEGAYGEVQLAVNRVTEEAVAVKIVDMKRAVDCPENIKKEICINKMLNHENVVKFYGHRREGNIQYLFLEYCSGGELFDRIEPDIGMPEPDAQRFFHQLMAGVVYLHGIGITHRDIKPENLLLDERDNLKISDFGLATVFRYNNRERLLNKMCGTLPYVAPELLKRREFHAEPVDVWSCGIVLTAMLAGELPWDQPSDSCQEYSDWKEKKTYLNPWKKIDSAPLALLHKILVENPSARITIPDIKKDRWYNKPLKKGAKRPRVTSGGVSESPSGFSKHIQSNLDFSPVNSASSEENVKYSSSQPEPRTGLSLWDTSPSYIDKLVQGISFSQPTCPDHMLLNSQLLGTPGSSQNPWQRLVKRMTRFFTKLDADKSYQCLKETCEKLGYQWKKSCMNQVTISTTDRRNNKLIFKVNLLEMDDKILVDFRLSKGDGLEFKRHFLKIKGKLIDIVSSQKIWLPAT

CLK4 = biological target: T4, CLK4 (Homo sapiens, UniProt Q9HAZ1); assay: KINOMEscan panel screen; assay type: binding; conditions: read-out: Percent Control(%)
T4 construct: purchased DiscoveRx KINOMEscan (Ambit Biosciences)

EPHB1 = biological target: T5, EPHB1 (Homo sapiens, UniProt P54762); assay: KINOMEscan panel screen; assay type: binding; conditions: read-out: Percent Control(%)
T5 construct: purchased DiscoveRx KINOMEscan (Ambit Biosciences)

FRK = biological target: T6, FRK (Homo sapiens, UniProt P42685); assay: KINOMEscan panel screen; assay type: binding; conditions: read-out: Percent Control(%)
T6 construct: purchased DiscoveRx KINOMEscan (Ambit Biosciences)

JNK1 = biological target: T7, JNK1 (Homo sapiens, UniProt P45983); assay: KINOMEscan panel screen; assay type: binding; conditions: read-out: Percent Control(%)
T7 construct: purchased DiscoveRx KINOMEscan (Ambit Biosciences)

MAP4K5 = biological target: T8, MAP4K5 (Homo sapiens, UniProt Q9Y4K4); assay: KINOMEscan panel screen; assay type: binding; conditions: read-out: Percent Control(%)
T8 construct: purchased DiscoveRx KINOMEscan (Ambit Biosciences)

MARK2 = biological target: T9, MARK2 (Homo sapiens, UniProt Q7KZI7); assay: KINOMEscan panel screen; assay type: binding; conditions: read-out: Percent Control(%)
T9 construct: purchased DiscoveRx KINOMEscan (Ambit Biosciences)

MKNK2 = biological target: T10, MKNK2 (Homo sapiens, UniProt Q9HBH9); assay: KINOMEscan panel screen; assay type: binding; conditions: read-out: Percent Control(%)
T10 construct: purchased DiscoveRx KINOMEscan (Ambit Biosciences)

MUSK = biological target: T11, MUSK (Homo sapiens, UniProt O15146); assay: KINOMEscan panel screen; assay type: binding; conditions: read-out: Percent Control(%)
T11 construct: purchased DiscoveRx KINOMEscan (Ambit Biosciences)

NEK4 = biological target: T12, NEK4 (Homo sapiens, UniProt P51957); assay: KINOMEscan panel screen; assay type: binding; conditions: read-out: Percent Control(%)
T12 construct: purchased DiscoveRx KINOMEscan (Ambit Biosciences)

PCTK2 = biological target: T13, PCTK2 (Homo sapiens, UniProt Q00537); assay: KINOMEscan panel screen; assay type: binding; conditions: read-out: Percent Control(%)
T13 construct: purchased DiscoveRx KINOMEscan (Ambit Biosciences)

PFTK1 = biological target: T14, PFTK1 (Homo sapiens, UniProt O94921); assay: KINOMEscan panel screen; assay type: binding; conditions: read-out: Percent Control(%)
T14 construct: purchased DiscoveRx KINOMEscan (Ambit Biosciences)

PIK3CA(C420R) = biological target: T15, PIK3CA(C420R) (Homo sapiens, UniProt P42336, C420R); assay: KINOMEscan panel screen; assay type: binding; conditions: read-out: Percent Control(%)
T15 construct: purchased DiscoveRx KINOMEscan (Ambit Biosciences)

PIK3CG = biological target: T16, PIK3CG (Homo sapiens, UniProt P48736); assay: KINOMEscan panel screen; assay type: binding; conditions: read-out: Percent Control(%)
T16 construct: purchased DiscoveRx KINOMEscan (Ambit Biosciences)

PKN1 = biological target: T17, PKN1 (Homo sapiens, UniProt Q16512); assay: KINOMEscan panel screen; assay type: binding; conditions: read-out: Percent Control(%)
T17 construct: purchased DiscoveRx KINOMEscan (Ambit Biosciences)

PLK1 = biological target: T18, PLK1 (Homo sapiens, UniProt P53350); assay: KINOMEscan panel screen; assay type: binding; conditions: read-out: Percent Control(%)
T18 construct: purchased DiscoveRx KINOMEscan (Ambit Biosciences)

PRKD3 = biological target: T19, PRKD3 (Homo sapiens, UniProt O94806); assay: KINOMEscan panel screen; assay type: binding; conditions: read-out: Percent Control(%)
T19 construct: purchased DiscoveRx KINOMEscan (Ambit Biosciences)

RIPK4 = biological target: T20, RIPK4 (Homo sapiens, UniProt P57078); assay: KINOMEscan panel screen; assay type: binding; conditions: read-out: Percent Control(%)
T20 construct: purchased DiscoveRx KINOMEscan (Ambit Biosciences)

[1] = biological target: T21, RPS6KA5(Kin.Dom.1-N-terminal) (Homo sapiens, UniProt O75582); assay: KINOMEscan panel screen; assay type: binding; conditions: read-out: Percent Control(%)
T21 construct: RPS6KA5(Kin.Dom.1-N-terminal); purchased DiscoveRx KINOMEscan (Ambit Biosciences)

SLK = biological target: T22, SLK (Homo sapiens, UniProt Q9H2G2); assay: KINOMEscan panel screen; assay type: binding; conditions: read-out: Percent Control(%)
T22 construct: purchased DiscoveRx KINOMEscan (Ambit Biosciences)

ULK1 = biological target: T23, ULK1 (Homo sapiens, UniProt O75385); assay: KINOMEscan panel screen; assay type: binding; conditions: read-out: Percent Control(%)
T23 construct: purchased DiscoveRx KINOMEscan (Ambit Biosciences)

[2] = test system: total β-catenin and active β-catenin in STF3a cells; assay: Western blot of β-catenin in STF3a cells; assay type: cell-based; conditions: 10 μM or above, 24 h
Miapaca-2 = assay: MTT cell viability assay; conditions: Homo sapiens, MIA PaCa-2, 72 h
FLT3-D835H = FLT3-D835H (Homo sapiens, UniProt P36888, D835H); assay: KINOMEscan kinase binding assay (Kd); set-up: purchased Ambit Biosciences (KINOMEscan)

T19 sequence (O94806 whole entry): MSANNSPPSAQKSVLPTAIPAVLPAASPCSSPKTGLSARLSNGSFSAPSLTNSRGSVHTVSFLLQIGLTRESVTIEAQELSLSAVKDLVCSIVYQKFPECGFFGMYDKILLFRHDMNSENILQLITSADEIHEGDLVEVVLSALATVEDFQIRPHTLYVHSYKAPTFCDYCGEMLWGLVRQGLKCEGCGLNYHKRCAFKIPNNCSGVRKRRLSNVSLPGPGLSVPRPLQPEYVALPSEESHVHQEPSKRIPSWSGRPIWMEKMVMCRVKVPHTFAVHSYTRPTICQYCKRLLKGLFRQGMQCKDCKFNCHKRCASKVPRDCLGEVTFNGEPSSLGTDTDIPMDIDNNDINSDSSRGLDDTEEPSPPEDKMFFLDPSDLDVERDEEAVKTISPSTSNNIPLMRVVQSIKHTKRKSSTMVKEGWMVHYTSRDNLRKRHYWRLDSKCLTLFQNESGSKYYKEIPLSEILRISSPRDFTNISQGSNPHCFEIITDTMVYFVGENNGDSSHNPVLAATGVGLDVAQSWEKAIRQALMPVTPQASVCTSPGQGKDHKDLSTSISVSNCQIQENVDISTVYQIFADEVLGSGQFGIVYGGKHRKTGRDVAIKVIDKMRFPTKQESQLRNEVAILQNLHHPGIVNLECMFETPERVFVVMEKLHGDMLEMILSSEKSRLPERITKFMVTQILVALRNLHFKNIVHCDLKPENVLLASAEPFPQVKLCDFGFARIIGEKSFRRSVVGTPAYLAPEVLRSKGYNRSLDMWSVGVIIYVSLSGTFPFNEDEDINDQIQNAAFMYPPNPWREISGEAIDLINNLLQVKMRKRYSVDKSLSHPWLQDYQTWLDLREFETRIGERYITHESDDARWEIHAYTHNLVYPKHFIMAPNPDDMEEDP
T9 sequence (Q7KZI7 whole entry): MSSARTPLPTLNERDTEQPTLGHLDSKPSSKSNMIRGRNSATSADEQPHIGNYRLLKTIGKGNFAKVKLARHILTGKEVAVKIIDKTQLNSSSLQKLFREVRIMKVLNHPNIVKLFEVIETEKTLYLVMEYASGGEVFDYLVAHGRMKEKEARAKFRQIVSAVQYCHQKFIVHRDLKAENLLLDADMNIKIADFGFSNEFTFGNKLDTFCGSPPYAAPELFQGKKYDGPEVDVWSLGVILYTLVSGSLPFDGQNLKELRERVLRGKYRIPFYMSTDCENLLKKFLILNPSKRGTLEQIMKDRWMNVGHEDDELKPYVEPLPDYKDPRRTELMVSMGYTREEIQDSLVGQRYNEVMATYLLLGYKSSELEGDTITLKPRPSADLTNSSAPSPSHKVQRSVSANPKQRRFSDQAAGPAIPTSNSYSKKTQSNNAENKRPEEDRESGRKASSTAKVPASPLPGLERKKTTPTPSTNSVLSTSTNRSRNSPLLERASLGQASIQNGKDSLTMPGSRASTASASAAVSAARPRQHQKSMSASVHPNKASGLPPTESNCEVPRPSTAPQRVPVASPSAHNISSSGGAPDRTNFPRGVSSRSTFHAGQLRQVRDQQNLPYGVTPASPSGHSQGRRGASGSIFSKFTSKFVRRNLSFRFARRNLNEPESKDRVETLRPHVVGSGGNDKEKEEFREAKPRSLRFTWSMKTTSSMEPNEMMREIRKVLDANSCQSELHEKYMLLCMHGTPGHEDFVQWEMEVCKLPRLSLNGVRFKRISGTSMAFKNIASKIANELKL
T22 sequence (Q9H2G2 whole entry): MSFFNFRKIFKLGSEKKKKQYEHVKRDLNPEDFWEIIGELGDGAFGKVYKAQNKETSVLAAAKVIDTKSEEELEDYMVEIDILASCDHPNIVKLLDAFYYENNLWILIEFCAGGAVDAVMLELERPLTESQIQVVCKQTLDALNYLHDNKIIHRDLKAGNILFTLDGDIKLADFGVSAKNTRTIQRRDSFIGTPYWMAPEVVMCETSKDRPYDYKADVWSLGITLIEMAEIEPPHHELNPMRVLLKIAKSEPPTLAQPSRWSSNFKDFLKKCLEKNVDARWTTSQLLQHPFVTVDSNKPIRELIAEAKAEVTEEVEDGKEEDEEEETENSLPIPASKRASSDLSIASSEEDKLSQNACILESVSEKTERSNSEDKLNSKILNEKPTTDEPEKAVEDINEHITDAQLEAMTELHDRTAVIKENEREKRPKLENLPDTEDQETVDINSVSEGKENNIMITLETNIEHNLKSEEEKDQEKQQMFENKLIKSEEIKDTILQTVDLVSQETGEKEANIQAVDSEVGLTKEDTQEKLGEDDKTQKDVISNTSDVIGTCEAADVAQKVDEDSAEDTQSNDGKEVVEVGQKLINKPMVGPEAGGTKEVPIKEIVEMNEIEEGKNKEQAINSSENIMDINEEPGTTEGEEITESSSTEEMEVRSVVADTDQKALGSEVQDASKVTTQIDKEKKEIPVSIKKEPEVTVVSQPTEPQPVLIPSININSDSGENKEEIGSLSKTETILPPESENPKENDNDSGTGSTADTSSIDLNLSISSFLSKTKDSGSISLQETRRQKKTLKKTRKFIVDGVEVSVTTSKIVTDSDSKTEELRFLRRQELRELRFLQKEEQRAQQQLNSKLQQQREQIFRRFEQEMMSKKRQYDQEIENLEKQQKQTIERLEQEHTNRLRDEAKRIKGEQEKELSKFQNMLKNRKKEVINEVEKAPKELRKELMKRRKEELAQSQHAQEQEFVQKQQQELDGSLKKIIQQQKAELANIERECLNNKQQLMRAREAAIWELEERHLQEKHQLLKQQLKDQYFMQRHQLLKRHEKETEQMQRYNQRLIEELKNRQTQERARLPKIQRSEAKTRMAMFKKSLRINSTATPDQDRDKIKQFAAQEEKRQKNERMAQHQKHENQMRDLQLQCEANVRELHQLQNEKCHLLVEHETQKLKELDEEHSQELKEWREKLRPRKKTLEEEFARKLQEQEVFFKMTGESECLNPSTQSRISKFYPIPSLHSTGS
T23 sequence (O75385 whole entry): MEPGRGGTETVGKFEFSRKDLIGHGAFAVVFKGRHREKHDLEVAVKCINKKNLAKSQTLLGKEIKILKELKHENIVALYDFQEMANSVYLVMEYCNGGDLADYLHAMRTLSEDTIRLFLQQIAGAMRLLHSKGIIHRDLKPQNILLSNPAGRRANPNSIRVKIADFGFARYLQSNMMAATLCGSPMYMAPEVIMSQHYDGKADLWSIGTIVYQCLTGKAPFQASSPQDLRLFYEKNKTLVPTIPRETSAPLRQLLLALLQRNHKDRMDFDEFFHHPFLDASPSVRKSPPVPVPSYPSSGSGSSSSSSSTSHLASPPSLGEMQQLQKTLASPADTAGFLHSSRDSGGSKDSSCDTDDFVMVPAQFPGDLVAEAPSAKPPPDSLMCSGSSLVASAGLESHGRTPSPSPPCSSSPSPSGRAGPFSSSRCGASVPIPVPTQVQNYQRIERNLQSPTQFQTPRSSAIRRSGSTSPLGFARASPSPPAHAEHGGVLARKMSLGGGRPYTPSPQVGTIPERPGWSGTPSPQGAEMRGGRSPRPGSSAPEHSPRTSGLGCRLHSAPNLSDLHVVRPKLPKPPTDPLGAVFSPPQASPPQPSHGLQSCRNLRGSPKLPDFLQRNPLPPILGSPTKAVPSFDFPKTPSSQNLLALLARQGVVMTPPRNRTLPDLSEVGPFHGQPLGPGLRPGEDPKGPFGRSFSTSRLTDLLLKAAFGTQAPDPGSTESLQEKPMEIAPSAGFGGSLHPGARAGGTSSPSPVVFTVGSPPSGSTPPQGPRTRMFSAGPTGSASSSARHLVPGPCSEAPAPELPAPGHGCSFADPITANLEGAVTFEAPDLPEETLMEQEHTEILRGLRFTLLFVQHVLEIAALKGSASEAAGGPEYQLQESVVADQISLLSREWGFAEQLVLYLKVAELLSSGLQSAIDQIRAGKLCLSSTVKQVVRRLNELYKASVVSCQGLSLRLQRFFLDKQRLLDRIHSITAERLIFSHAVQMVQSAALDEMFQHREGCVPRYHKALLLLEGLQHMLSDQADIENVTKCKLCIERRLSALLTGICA
T17 sequence (Q16512 whole entry): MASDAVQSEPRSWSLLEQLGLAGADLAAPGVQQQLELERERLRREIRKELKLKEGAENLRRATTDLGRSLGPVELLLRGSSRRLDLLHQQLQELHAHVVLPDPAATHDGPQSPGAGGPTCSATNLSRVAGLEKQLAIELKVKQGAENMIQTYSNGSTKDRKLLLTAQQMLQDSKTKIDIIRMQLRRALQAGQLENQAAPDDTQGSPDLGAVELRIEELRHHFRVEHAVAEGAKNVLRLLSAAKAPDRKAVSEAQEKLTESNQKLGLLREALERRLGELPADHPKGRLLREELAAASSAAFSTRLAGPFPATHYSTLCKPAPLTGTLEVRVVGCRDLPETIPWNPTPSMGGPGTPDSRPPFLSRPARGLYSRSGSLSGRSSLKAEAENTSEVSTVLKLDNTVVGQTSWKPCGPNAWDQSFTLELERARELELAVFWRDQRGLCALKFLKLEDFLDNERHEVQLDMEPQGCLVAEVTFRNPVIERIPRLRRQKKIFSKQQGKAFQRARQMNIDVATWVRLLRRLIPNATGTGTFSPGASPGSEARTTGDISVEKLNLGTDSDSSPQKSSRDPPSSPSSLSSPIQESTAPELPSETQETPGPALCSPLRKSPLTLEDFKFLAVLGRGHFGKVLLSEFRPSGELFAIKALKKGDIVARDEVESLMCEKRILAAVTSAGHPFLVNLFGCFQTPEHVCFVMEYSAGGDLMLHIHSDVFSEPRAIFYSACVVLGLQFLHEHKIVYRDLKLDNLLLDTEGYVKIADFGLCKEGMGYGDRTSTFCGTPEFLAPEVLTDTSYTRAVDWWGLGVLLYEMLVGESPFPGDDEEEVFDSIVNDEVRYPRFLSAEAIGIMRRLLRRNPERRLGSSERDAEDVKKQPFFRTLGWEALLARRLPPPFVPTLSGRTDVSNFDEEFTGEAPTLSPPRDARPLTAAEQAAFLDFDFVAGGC

## O=C(Nc1ccc(Oc2ncnc3[nH]ncc23)cc1)Nc1ccc(Cl)c(C(F)(F)F)c1 [Compound 1, 1-(4-(1H-pyrazolo[3,4-d]pyrimidin-4-yloxy)phenyl)-3-(4-chloro-3-(trifluoromethyl)phenyl)urea]
ERK
  IC50: > 10 µM

## CC(C)(C)c1cc(NC(=O)Nc2ccc(Oc3ncnc4[nH]ncc34)c(F)c2)no1 [SKLB-677, 1-(4-(1H-pyrazolo[3,4-d]pyrimidin-4-yloxy)-3-fluorophenyl)-3-(5-tert-butylisoxazol-3-yl)urea]
BMX
  remaining binding at 10 µM: 73%
CDK4-cyclinD3
  remaining binding at 10 µM: 4.8%
CHEK1
  remaining binding at 10 µM: 100%
CLK4
  remaining binding at 10 µM: 9.6%
EPHB1
  remaining binding at 10 µM: 3.2%
FRK
  remaining binding at 10 µM: 0%
JNK1
  remaining binding at 10 µM: 52%
MAP4K5
  remaining binding at 10 µM: 2%
MARK2
  remaining binding at 10 µM: 98%
MKNK2
  remaining binding at 10 µM: 1%
MUSK
  remaining binding at 10 µM: 0%
NEK4
  remaining binding at 10 µM: 38%
PCTK2
  remaining binding at 10 µM: 0%
PFTK1
  remaining binding at 10 µM: 0.05%
PIK3CA(C420R)
  remaining binding at 10 µM: 96%
PIK3CG
  remaining binding at 10 µM: 100%
PKN1
  remaining binding at 10 µM: 82%
PLK1
  remaining binding at 10 µM: 35%
PRKD3
  remaining binding at 10 µM: 100%
RIPK4
  remaining binding at 10 µM: 0.85%
[1]
  remaining binding at 10 µM: 66%
SLK
  remaining binding at 10 µM: 0.2%
ULK1
  remaining binding at 10 µM: 70%
[2]
  protein levels of the total β-catenin and active β-catenin: slightly decreased
Miapaca-2
  IC50: > 10 µM
FLT3-D835H
  Kd: 0.00074 µM
